In ChEMBL document CHEMBL3588842, “Discovery of Selective Small-Molecule Inhibitors for the β-Catenin/T-Cell Factor Protein-Protein Interaction through the Optimization of the Acyl Hydrazone Moiety” (J Med Chem, 2015):
Activity calls are given as the source filed them. The calls are words filed in the database; no cut-off is given here.

Assays:
SW480 [1] = experiment: Decrease in AXIN2 mRNA expression in human SW480 cells at 2 uM after 24 hrs by quantitative real-time PCR analysis; format: functional; conditions: SW480, 24 h
SW480 [2] = experiment: Decrease in cyclin D1 mRNA expression in human SW480 cells at 2 uM after 24 hrs by quantitative real-time PCR analysis; format: functional; conditions: SW480, 24 h
SW480 [3] = experiment: Decrease in c-myc mRNA expression in human SW480 cells at 2 uM after 24 hrs by quantitative real-time PCR analysis; format: functional; conditions: SW480, 24 h
SW480 [4] = experiment: Effect on HPRT mRNA expression in human SW480 cells after 24 hrs by quantitative real-time PCR analysis; format: functional, cell-based
SW480 [5] = experiment: Effect on beta-catenin degradation in human SW480 cells assessed as beta-catenin protein expression after 24 hrs by western blot analysis; format: functional, cell-based
[6] = Inhibition of interaction of beta-catenin (unknown origin) transfected in Wnt-activated HEK293 cells/Tcf4 assessed as decrease in transactivation of canonical Wnt signaling by TOPflash luciferase reporter assay; conditions: Homo sapiens
HCT-116 [7] = experiment: cells; conditions: Homo sapiens, HCT-116, 72 h
SW480 [8] = experiment: cells; conditions: Homo sapiens, SW480, 72 h
HCT-116 [9] = experiment: Cytotoxicity against human HCT116 cells assessed as inhibition of cell growth after 72 hrs by MTS assay
HEK293 = experiment: Inhibition of interaction of beta-catenin (unknown origin) transfected in Wnt-activated HEK293 cells/Tcf4 assessed as decrease in transactivation of canonical Wnt signaling by TOPflash luciferase reporter assay; conditions: Homo sapiens
SW480 [10] = experiment: Cytotoxicity against human SW480 cells assessed as inhibition of cell growth after 72 hrs by MTS assay
HT-29 = experiment: cells; conditions: Homo sapiens, HT-29, 72 h
[11] = tested on: beta-catenin R469A mutant/Tcf4 (human); experiment: Inhibition of human beta-catenin R469A mutant interaction with Tcf4 by fluorescence polarization competitive inhibition assay
Catenin beta-1 [12] = target: T1, Catenin beta-1 (Homo sapiens, UniProt P35222); experiment: Inhibition of human wild-type beta-catenin (residues 138-686)/C-terminally fluorescein-labeled human E-cadherin (residues 819-873) interaction by FP competitive inhibition assay
T1 sequence (P35222 whole entry): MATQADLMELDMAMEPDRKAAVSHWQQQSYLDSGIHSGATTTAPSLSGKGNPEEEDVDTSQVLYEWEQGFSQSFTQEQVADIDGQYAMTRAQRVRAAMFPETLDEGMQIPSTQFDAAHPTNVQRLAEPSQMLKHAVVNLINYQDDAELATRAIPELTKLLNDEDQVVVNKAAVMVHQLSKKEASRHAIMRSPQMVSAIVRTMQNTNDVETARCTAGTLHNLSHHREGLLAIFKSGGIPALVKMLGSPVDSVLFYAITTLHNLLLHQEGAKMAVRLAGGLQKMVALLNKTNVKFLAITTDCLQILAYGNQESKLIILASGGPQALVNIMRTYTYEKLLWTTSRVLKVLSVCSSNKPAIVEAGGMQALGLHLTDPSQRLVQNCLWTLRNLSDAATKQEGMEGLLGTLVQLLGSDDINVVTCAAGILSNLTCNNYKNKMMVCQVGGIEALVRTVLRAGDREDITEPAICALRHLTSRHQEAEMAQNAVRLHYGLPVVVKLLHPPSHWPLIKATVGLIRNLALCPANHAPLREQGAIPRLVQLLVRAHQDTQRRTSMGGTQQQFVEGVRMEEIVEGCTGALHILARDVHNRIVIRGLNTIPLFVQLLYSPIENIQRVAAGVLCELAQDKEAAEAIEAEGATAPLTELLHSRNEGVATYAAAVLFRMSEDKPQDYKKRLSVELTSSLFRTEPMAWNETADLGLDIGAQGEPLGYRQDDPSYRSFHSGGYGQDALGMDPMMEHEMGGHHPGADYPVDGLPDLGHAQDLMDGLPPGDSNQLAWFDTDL

Catenin beta-1 [13] = target: T1, Catenin beta-1; experiment: Inhibition of human wild-type beta-catenin (residues 138-686)/C-terminally fluorescein-labeled human APC-R3 (residues 1477-1519) interaction by FP competitive inhibition assay
Catenin beta-1 [14] = target: T1, Catenin beta-1; experiment: Inhibition of human wild-type beta-catenin (residues 138-686)/C-terminally fluorescein labeled human wild-type Tcf4 (residues 7-51) interaction after […] by FP competitive inhibition assay
[15] = Inhibition of beta-catenin/Tcf4 interaction in human SW480 cells assessed as decrease in transactivation of canonical Wnt signaling by TOPflash luciferase reporter assay

SMILES	IC50 [6]	IC50 (HCT-116 [7])	IC50 (SW480 [8])	inhibition (HCT-116 [9])	inhibition (HEK293)	inhibition (SW480 [10])	further results
Nc1nonc1C(=O)N/N=C1/c2ccccc2-c2nc3nonc3nc21	–	–	–	–	–	–	inhibition at 2 µM (SW480 [1]): > 50%; inhibition at 2 µM (SW480 [2]): > 50%; inhibition at 2 µM (SW480 [3]): > 50%; Activity (SW480 [4]): inactive; Activity (SW480 [5]): inactive
c1ccc2c(c1)c1nc3nonc3nc1n2CCc1nn[nH]n1	26 µM	31 µM	> 200 µM	–	–	–	Activity (SW480 [4]): inactive
CCOC(=O)CCCn1c2ccccc2c2nc3nonc3nc21	–	–	–	inactive	inactive	inactive	–
O=C(O)c1ccc2nc(-c3ccc(Cl)cc3)c(-c3ccc(Cl)cc3)nc2c1	> 100 µM	22 µM	38 µM	–	–	–	IC50 (HT-29): 41 µM
COc1c(C[C@H](C)O)c2c3c(C[C@H](C)O)c(OC)c(=O)c4c(O)cc5c(c6c(cc(O)c(c1=O)c62)OCO5)c43	–	1.2 µM	5.5 µM	–	–	–	IC50 (HT-29): 1.8 µM
O=C(O)CCCn1c2ccccc2c2nc3nonc3nc21	–	–	–	inactive	inactive	inactive	–
Nc1nonc1NC(=O)Cn1c2ccccc2c2nc3nonc3nc21	–	–	–	inactive	inactive	inactive	Ki [11]: 42 µM
N#CCCn1c2ccccc2c2nc3nonc3nc21	–	0.02 µM	52 µM	–	–	–	–
COC(=O)CCn1c2ccccc2c2nc3nonc3nc21	–	–	–	inactive	inactive	inactive	–
O=C(O)c1cc2nc(-c3ccc4c(c3)OCO4)c(-c3ccc4c(c3)OCO4)nc2cc1O	> 100 µM	–	–	–	–	–	–
O=C(O)c1cc(-c2ccc(Oc3ccc(Cl)cc3)cc2)on1	39 µM	–	–	–	–	–	–
COc1c(C[C@@H](C)OC(=O)Oc2ccc(O)cc2)c2c3c(C[C@@H](C)OC(=O)c4ccccc4)c(OC)c(=O)c4c(O)cc(OC)c(c5c(OC)cc(O)c(c1=O)c52)c43 [CALPHOSTIN C]	–	–	–	–	–	–	IC50 (Catenin beta-1 [12]): 38 µM; IC50 (Catenin beta-1 [13]): 110 µM; IC50 (Catenin beta-1 [14]): 77 µM
COc1ccc(/C=C2/SC(=S)N(CCCC(=O)O)C2=O)cc1OC	–	180 µM	240 µM	–	–	–	IC50 (HT-29): 290 µM; IC50 [15]: 4 µM
